# Assay results: US20040202713A1, “Means and method for hormonal contraception” (priority 2001, published 2004)
# What was measured:
# [1] = test system: young healthy women; assay: Clinical study in contraception, sequential regimen (Example 1): vaginal ultrasonography, endogenous hormones, bleeding pattern; assay type: in vivo, human; settings: 2 mg 17beta-estradiol days 1-14, then 10 mg dydrogesterone + 2 mg 17beta-estradiol days 15-28, single cycle
# Excerpt: Women who participated ill the study described in this example were all selected on the basis that they were users of ‘high’ dose monophasic ethinyl estradiol-containing combined oral contraceptives. The reasons for applying this selection criterion was that there is a dose relationship between follicular development and ethinyl estradiol whether given alone or in combination with a progestogen, i.e. less follicular development in the presence of the higher dose. Participation of the females involved in the study started at a moment of (almost) complete suppression of follicular development. This condition is not met if a person has their first day of bleeding in a natural cycle, after a tablet-free interval, or immediately after a low-dose combined oral contraceptive. A clinical study in contraception was conducted in 9 young healthy women who previously used a monophasic oral contraceptive pill with at least 30 microgram of ethinyl estradiol. The women were administered 2 mg 17beta-estradiol during days 1-14 of the cycle. From days. 15 to 28 of the cycle 10 mg dydrogesterone combined with 2 mg 17beta-estradiol was administered. The participants were followed by vaginal ultrasonography and blood sampling for endogenous hormones to assess ovarian function (ovulation-inhibition). Vaginal bleeding pattern and feeling of well being were scored by the participants.
# [2] = test system: women; assay: Clinical study in contraception, combined ethinyl estradiol/dydrogesterone regimen (Example 2); assay type: in vivo, human; settings: 30 μg ethinyl estradiol + 20 mg dydrogesterone daily for 24 days, then 4 days placebo; 8 women
# Method: A clinical study in contraception is conducted in 8 women, who were selected on the basis of the criteria mentioned in Example 1, using 30 μg ethinyl estradiol and 20 mg dydrogesterone. The aforementioned dose is administered on a daily basis during 24 days, followed by a hormone-free period placebo's) of 4 days.
# [3] = test system: women; assay: Clinical study with dydrogesterone as progestogen-only preparation (Example 3); assay type: in vivo, human; settings: 20 mg dydrogesterone once a day, uninterrupted for 4 months, 8 women
# Method: A clinical study with dydrogesterone as a progestogen-only preparation is conducted in 8 women who were selected on the basis of the criteria mentioned in Example 1. The 8 women receive a 20 mg dosage of dydrogesterone once a day, uninterruptedly during a period of 4 months.
# [4] = test system: humans; settings: reported by Claassen et al., Acta Endocrinologica (1967); cited from earlier work
# [5] = compared with commercially used synthetic progestogens; cited from earlier work
# [6] = hormone replacement therapy with 17beta-estradiol dydrogesterone (Grisar et al. 1999); cited from earlier work
smiles,measurement,setting,value
"CC(=O)[C@H]1CC[C@H]2[C@@H]3C=CC4=CC(=O)CC[C@@]4(C)[C@@H]3CC[C@]12C [dydrogesterone, 9β,10α-pregna-4,6-diene-3,20-dione]",Ovulation inhibition (subjects with inhibition),[1]; 9 women,7 of the 9
same,Intermenstrual bleeding,[1]; scored by participants,No intermenstrual bleeding was observed
same,Ovulation inhibition,[2],ovulation inhibition is achieved
same,Withdrawal bleeding,[2],Regular withdrawal bleeding occurs in all women
same,Irregular bleeding,[3],some unpredictable irregular bleeding
same,Menstrual flow,[3],reduction of the usual menstrual flow
same,Ovulation inhibition,[3],Ovulation is inhibited
same,Ovulation inhibition in humans,[4],does not inhibit ovulation in humans
same,"Estrogenic, glucocorticoid, anabolic or androgenic properties",[5],"does not exhibit estrogenic, glucocorticoid, anabolic or androgenic properties"
same,Adverse effects on blood pressure,[6],no adverse effects on blood pressure
